Measurements reported in PMC5552782, “Crystal Structure of MpPR-1i, a SCP/TAPS protein from Moniliophthora perniciosa, the fungus that causes Witches’ Broom Disease of Cacao” (Scientific Reports, 2017).

Target: T1, MpPR-1i (Moniliophthora perniciosa, UniProt H6U756)
T1 construct: gene PR-1i; signal peptide removed; cDNA from green broom stage; modified pET SUMO, E. coli SHuffle; His-SUMO tag cut with ULP-1; untagged; monomer
Experiment: radioligand binding, Q-sepharose capture, scintillation counting

T1 sequence (H6U756 entry or part of it): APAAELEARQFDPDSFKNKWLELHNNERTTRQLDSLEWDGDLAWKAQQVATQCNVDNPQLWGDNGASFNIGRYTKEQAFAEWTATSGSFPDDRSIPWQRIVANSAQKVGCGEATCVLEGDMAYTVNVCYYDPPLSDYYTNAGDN

CCCCCCCCCCCCCCCC(=O)O [palmitic acid]
Kd: 107 µM
